# Assay results as given in PMC10331583, “Control of fibrosis with enhanced safety via asymmetric inhibition of prolyl‐tRNA synthetase 1” (EMBO Molecular Medicine, 2023).
# Substitutions are numbered along the chain they refer to. pIC50, pKd: −log10 of the molar value. “And” between values parts separate entries of the source, which are not always exact repeats. Equal entries are not always repeated. “Also recorded” adds a separate entry of the source.
# Experiments:
# His‐PARS1 = molecular target: T1, His‐PARS1 (Homo sapiens, UniProt P07814); assay: Surface plasmon resonance (SPR); assay type: binding
# T1 construct: His‐PARS1 (1001–1,512 aa); made in house; host or cells: Escherichia coli
# T1 sequence (P07814 1001-1512 limits assumed): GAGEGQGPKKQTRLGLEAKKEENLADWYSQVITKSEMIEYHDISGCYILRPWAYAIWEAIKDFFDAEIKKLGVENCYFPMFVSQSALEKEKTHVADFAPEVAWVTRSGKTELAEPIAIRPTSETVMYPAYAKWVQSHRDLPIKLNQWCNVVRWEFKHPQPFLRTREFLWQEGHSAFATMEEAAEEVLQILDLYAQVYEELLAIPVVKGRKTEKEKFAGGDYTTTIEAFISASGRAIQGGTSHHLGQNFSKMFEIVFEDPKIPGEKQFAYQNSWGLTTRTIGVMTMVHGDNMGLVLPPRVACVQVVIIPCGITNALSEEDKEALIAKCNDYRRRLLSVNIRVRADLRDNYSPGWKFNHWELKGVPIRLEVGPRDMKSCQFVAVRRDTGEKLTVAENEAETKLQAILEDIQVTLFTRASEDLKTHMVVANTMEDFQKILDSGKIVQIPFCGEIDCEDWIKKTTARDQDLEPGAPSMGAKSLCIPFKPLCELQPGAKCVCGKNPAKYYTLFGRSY
# PARS1 = molecular target: T2, PARS1 (Homo sapiens, UniProt P07814); assay: In vitro prolylation assay; assay type: biochemical
# T2 construct: His‐PARS1 (1001–1,512 aa); His; made in house; host or cells: Escherichia coli
# T2 sequence (P07814 1001-1512 limits assumed): T1 sequence (P07814 1001-1512 limits assumed)
# Protocol: The enzyme reaction was initiated by the addition of 100 nM purified His‐PARS1 (1001–1,512 aa). After 5 min, the reaction mixture was quenched on Whatman filter paper presoaked with 5% trichloroacetic acid (TCA). The filter papers were washed three times in 5% TCA for 10 min at 4°C and once in 100% ethanol for 10 min. The filter papers were dried, and radioactivity was quantified using liquid scintillation counter (LSC).
# After 1 h, the reaction mixture was quenched on Whatman filter paper presoaked with 5% TCA. The filter papers were washed three times in 5% TCA for 10 min at 4°C and once in 100% ethanol for 10 min. The filter papers were dried, and radioactivity was quantified using LSC.
# [1] = molecular target: T3, PARS1 F1097A/E1123A/R1152L (FA/EA/RL) mutant (Homo sapiens, UniProt P07814, E1123A/F1097A/R1152L); assay: Microscale thermophoresis (MST), PARS1 mutant; assay type: binding; settings: for Fraction bound: single replicates
# T3 construct: His‐PARS1 (1001–1,512 aa); made in house; host or cells: Escherichia coli
# T3 sequence (P07814 1001-1512 F1097A/E1123A/R1152L): T1 sequence (P07814 1001-1512 limits assumed) with F97A, E123A, R152L
smiles,measurement,setting,value
O[C@H]1CCCN[C@@H]1CCCn1cnc2c(Cl)c(Cl)ccc21 [DWN12088],pKd,"His‐PARS1; KD, + ATP (1 mM)",4.51
same,pKd,"His‐PARS1; KD, - ATP",< 3.52
same,pKd,"His‐PARS1; Kd, SPR, in the presence of ATP",4.51
same,pIC50,"PARS1; IC50, 1 μM Pro, 5 mM ATP",7.12
same,pIC50,"PARS1; IC50, 10 μM Pro, 5 mM ATP",6.40
same,pIC50,"PARS1; IC50, 100 μM Pro, 2.5 mM ATP",5.23
same,pIC50,"PARS1; IC50, 100 μM Pro, 5 mM ATP",5.19
same,pIC50,"PARS1; IC50, 100 μM Pro, 10 mM ATP",5.52
same,mode of PARS1 inhibition,PARS1; IC50 at different proline and ATP concentrations,"proline‐competitive and ATP‐uncompetitive; also recorded: competitive inhibitor for proline, and a mixed or uncompetitive inhibitor for ATP"
same,"Fraction bound, average",[1]; Dose 30.5176 nM,-0.2196
same,Fraction bound,[1]; Dose 30.5176 nM,-0.0531 and -0.3613 and -0.2444
same,"Fraction bound, average",[1]; Dose 61.0352 nM,-0.1437
same,Fraction bound,[1]; Dose 61.0352 nM,-0.0707 and -0.1506 and -0.2099
same,"Fraction bound, average",[1]; Dose 122.07 nM,0.0563
same,Fraction bound,[1]; Dose 122.07 nM,0.1029 and 0.0530 and 0.0131
same,"Fraction bound, average",[1]; Dose 244.141 nM,0.2244
same,Fraction bound,[1]; Dose 244.141 nM,0.3322 and 0.1837 and 0.1572
same,"Fraction bound, average",[1]; Dose 488.281 nM,-0.0768
same,Fraction bound,[1]; Dose 488.281 nM,-0.1204 and -0.1742 and 0.0641
same,"Fraction bound, average",[1]; Dose 976.562 nM,-0.0355
same,Fraction bound,[1]; Dose 976.562 nM,-0.2804 and 0.0014 and 0.1724
same,"Fraction bound, average",[1]; Dose 1953.12 nM,0.1140
same,Fraction bound,[1]; Dose 1953.12 nM,0.1616 and 0.0279 and 0.1524
same,"Fraction bound, average",[1]; Dose 3906.25 nM,0.1368
same,Fraction bound,[1]; Dose 3906.25 nM,8.74e-5 and 0.2618 and 0.1487
same,"Fraction bound, average",[1]; Dose 7812.5 nM,-0.0582
same,Fraction bound,[1]; Dose 7812.5 nM,-0.2477 and -0.0355 and 0.1087
same,"Fraction bound, average",[1]; Dose 15625 nM,0.2874
same,Fraction bound,[1]; Dose 15625 nM,0.1991 and 0.1856 and 0.4774
same,"Fraction bound, average",[1]; Dose 31250 nM,0.2894
same,Fraction bound,[1]; Dose 31250 nM,0.2431 and 0.4002 and 0.2248
same,"Fraction bound, average",[1]; Dose 62500 nM,0.2591
same,Fraction bound,[1]; Dose 62500 nM,0.5108 and 0.3402 and -0.0738
same,"Fraction bound, average",[1]; Dose 125000 nM,0.4857
same,Fraction bound,[1]; Dose 125000 nM,0.4645 and 0.6139 and 0.3786
same,"Fraction bound, average",[1]; Dose 250000 nM,0.6790
same,Fraction bound,[1]; Dose 250000 nM,0.6147 and 0.6365 and 0.7858
same,"Fraction bound, average",[1]; Dose 500000 nM,0.8538
same,Fraction bound,[1]; Dose 500000 nM,0.9212 and 0.7677 and 0.8725
same,"Fraction bound, average",[1]; Dose 1000000 nM,0.8907
same,Fraction bound,[1]; Dose 1000000 nM,0.9649 and 0.9924 and 0.7150
